Assay results taken from ChEMBL document CHEMBL3885881, “DrugMatrix”.

Organism: Rattus norvegicus
Assay: DrugMatrix - Regimen: Daily Repeat
Format: toxicity, organism-based, Sprague-Dawley
Parameters: regimen Daily Repeat, gender Male, age 6-8 weeks
Conditions: in vivo, po, route oral GAVAGE, […]; for ABSOLUTE BASOPHIL / ABSOLUTE EOSINOPHIL / ABSOLUTE LYMPHOCYTE / ABSOLUTE MONOCYTE / ABSOLUTE SEGMENTED NEUTROPHIL / BASOPHIL / EOSINOPHIL / ERYTHROCYTE COUNT / HEMATOCRIT / HEMOGLOBIN / LEUKOCYTE COUNT / LYMPHOCYTE / MEAN CORPUSCULAR HEMOGLOBIN / MEAN CORPUSCULAR HEMOGLOBIN CONCENTRATION / MEAN CORPUSCULAR VOLUME / MONOCYTE / NEUTROPHIL / NUCLEATED RED BLOOD CELLS / PLATELET COUNT: tissue Blood; for ALANINE AMINOTRANSFERASE / ALKALINE PHOSPHATASE / ASPARTATE AMINOTRANSFERASE / BLOOD UREA NITROGEN / CARBON DIOXIDE / CHLORIDE / CHOLESTEROL / CREATINE PHOSPHOKINASE / CREATININE / GLUCOSE / LACTATE DEHYDROGENASE / LIPASE / PHOSPHORUS / POTASSIUM / SODIUM / TOTAL BILIRUBIN / TOTAL PROTEIN / URIC ACID: tissue Plasma
[1] = 36 mg/kg, 120 h, dose level Low, time 5 day
[2] = 386 mg/kg, 72 h, dose level High, time 3 day
[3] = 386 mg/kg, 120 h, dose level High, time 5 day

## c1ccc2c(c1)Nc1ccccc1S2 [PHENOTHIAZINE]
[1]
  ABSOLUTE BASOPHIL: 0 CELLS/uL
  ABSOLUTE EOSINOPHIL: 85 CELLS/uL
  ABSOLUTE LYMPHOCYTE: 7942.67 CELLS/uL
  ABSOLUTE MONOCYTE: 54.67 CELLS/uL
  ABSOLUTE SEGMENTED NEUTROPHIL: 984.33 CELLS/uL
  BASOPHIL: 0%
  EOSINOPHIL: 1%
  ERYTHROCYTE COUNT: 5.36 x10E6/uL
  HEMATOCRIT: 33.6%
  HEMOGLOBIN: 13.03 G/DL
  LEUKOCYTE COUNT: 9.07 x10E3/uL
  LYMPHOCYTE: 87.67%
  MEAN CORPUSCULAR HEMOGLOBIN: 24.33 pg
  MEAN CORPUSCULAR HEMOGLOBIN CONCENTRATION: 38.8 G/DL
  MEAN CORPUSCULAR VOLUME: 62.63 fL
  MONOCYTE: 0.67%
  NEUTROPHIL: 10.67%
  NUCLEATED RED BLOOD CELLS: 0 /100WBC
  PLATELET COUNT: 1083 x10E3/uL
  ALANINE AMINOTRANSFERASE: 54.67 u/L
  ALKALINE PHOSPHATASE: 331 u/L
  ASPARTATE AMINOTRANSFERASE: 95.67 u/L
  BLOOD UREA NITROGEN: 13.33 mg/dL
  CARBON DIOXIDE: 27 mmol/L
  CHLORIDE: 101.67 MEQ/L
  CHOLESTEROL: 59.67 mg/dL
  CREATINE PHOSPHOKINASE: 568.67 u/L
  CREATININE: 0.17 mg/dL
  GLUCOSE: 162.33 mg/dL
  LACTATE DEHYDROGENASE: 99.67 u/L
  LIPASE: 10.33 u/L
  PHOSPHORUS: 9.13 mg/dL
  POTASSIUM: 5.69 MEQ/L
  SODIUM: 147.3 MEQ/L
  TOTAL BILIRUBIN: 0.2 mg/dL
  TOTAL PROTEIN: 5.73 G/DL
  URIC ACID: 0.57 mg/dL
[2]
  ABSOLUTE BASOPHIL: 0 CELLS/uL
  ABSOLUTE EOSINOPHIL: 0 CELLS/uL
  ABSOLUTE LYMPHOCYTE: 9449.33 CELLS/uL
  ABSOLUTE MONOCYTE: 225 CELLS/uL
  ABSOLUTE SEGMENTED NEUTROPHIL: 1559 CELLS/uL
  BASOPHIL: 0%
  EOSINOPHIL: 0%
  ERYTHROCYTE COUNT: 6.26 x10E6/uL
  HEMATOCRIT: 38.97%
  HEMOGLOBIN: 14.93 G/DL
  LEUKOCYTE COUNT: 11.23 x10E3/uL
  LYMPHOCYTE: 84.67%
  MEAN CORPUSCULAR HEMOGLOBIN: 23.83 pg
  MEAN CORPUSCULAR HEMOGLOBIN CONCENTRATION: 38.3 G/DL
  MEAN CORPUSCULAR VOLUME: 62.3 fL
  MONOCYTE: 2%
  NEUTROPHIL: 13.33%
  NUCLEATED RED BLOOD CELLS: 0 /100WBC
  PLATELET COUNT: 976.33 x10E3/uL
  ALANINE AMINOTRANSFERASE: 78.33 u/L
  ALKALINE PHOSPHATASE: 354.33 u/L
  ASPARTATE AMINOTRANSFERASE: 109.33 u/L
  BLOOD UREA NITROGEN: 12.67 mg/dL
  CARBON DIOXIDE: 29.67 mmol/L
  CHLORIDE: 97 MEQ/L
  CHOLESTEROL: 128 mg/dL
  CREATINE PHOSPHOKINASE: 511 u/L
  CREATININE: 0.21 mg/dL
  GLUCOSE: 125 mg/dL
  LACTATE DEHYDROGENASE: 138.67 u/L
  LIPASE: 40.67 u/L
  PHOSPHORUS: 7.87 mg/dL
  POTASSIUM: 5.77 MEQ/L
  SODIUM: 142 MEQ/L
  TOTAL BILIRUBIN: 0.7 mg/dL
  TOTAL PROTEIN: 5.53 G/DL
  URIC ACID: 0.6 mg/dL
[3]
  ABSOLUTE BASOPHIL: 0 CELLS/uL
  ABSOLUTE EOSINOPHIL: 0 CELLS/uL
  ABSOLUTE LYMPHOCYTE: 8085.67 CELLS/uL
  ABSOLUTE MONOCYTE: 101 CELLS/uL
  ABSOLUTE SEGMENTED NEUTROPHIL: 1546.67 CELLS/uL
  BASOPHIL: 0%
  EOSINOPHIL: 0%
  ERYTHROCYTE COUNT: 5 x10E6/uL
  HEMATOCRIT: 31.27%
  HEMOGLOBIN: 12.03 G/DL
  LEUKOCYTE COUNT: 9.73 x10E3/uL
  LYMPHOCYTE: 82.67%
  MEAN CORPUSCULAR HEMOGLOBIN: 24.07 pg
  MEAN CORPUSCULAR HEMOGLOBIN CONCENTRATION: 38.53 G/DL
  MEAN CORPUSCULAR VOLUME: 62.43 fL
  MONOCYTE: 1%
  NEUTROPHIL: 16.33%
  NUCLEATED RED BLOOD CELLS: 0 /100WBC
  PLATELET COUNT: 1551.67 x10E3/uL
  ALANINE AMINOTRANSFERASE: 64.67 u/L
  ALKALINE PHOSPHATASE: 210.67 u/L
  ASPARTATE AMINOTRANSFERASE: 87.67 u/L
  BLOOD UREA NITROGEN: 15.33 mg/dL
  CARBON DIOXIDE: 27.67 mmol/L
  CHLORIDE: 101 MEQ/L
  CHOLESTEROL: 108.33 mg/dL
  CREATINE PHOSPHOKINASE: 236 u/L
  CREATININE: 0.23 mg/dL
  GLUCOSE: 135 mg/dL
  LACTATE DEHYDROGENASE: 68.67 u/L
  LIPASE: 11.33 u/L
  PHOSPHORUS: 9.1 mg/dL
  POTASSIUM: 5.66 MEQ/L
  SODIUM: 145.9 MEQ/L
  TOTAL BILIRUBIN: 0.33 mg/dL
  TOTAL PROTEIN: 5.3 G/DL
  URIC ACID: 0.77 mg/dL
